The record followed here is ChEMBL document CHEMBL5579794, “Improved synthesis and evaluation of preclinical pharmacodynamic parameters of a new monocyclic β-lactam DPI-2016” (Bioorg Med Chem Lett, 2024).

Molecules are shown by their SMILES.

Data set [1] can be described thus: Plasma protein binding in human at 1 uM incubated for 6 hrs by LC-MS/MS analysis. The data set is classed as ADME, cell-free. The settings on record: read-out: PPB (converted).
Data set [2] is described as follows: Plasma protein binding in rat at 1 uM incubated for 6 hrs by LC-MS/MS analysis. The settings on record: read-out: PPB (converted). The data set is classed as ADME, cell-free.
Data set [3] can be described thus: Stability in rat liver microsomes at 0.2 mg/ml measured up to 60 mins in presence of NADPH by LC-MS/MS analysis. Type of data set: ADME, Microsome. The settings on record: 1 h.
A short description of data set [4]: Stability in mouse liver microsomes at 0.2 mg/ml measured up to 60 mins in presence of NADPH by LC-MS/MS analysis. The data set is classed as ADME, Microsome. The settings on record: 1 h.
Data set [5] is described as follows: Stability in monkey liver microsomes at 0.2 mg/ml measured up to 60 mins in presence of NADPH by LC-MS/MS analysis. The data set is classed as ADME, Macaca mulatta, Microsome. The settings on record: rhesus monkey, 1 h.
Data set [6] can be described thus: Stability in human liver microsomes at 0.2 mg/ml measured up to 60 mins in presence of NADPH by LC-MS/MS analysis. The data set is classed as ADME, Microsome. The settings on record: 1 h.
The nature of data set [7]: Stability in dog liver microsomes at 0.2 mg/ml measured up to 60 mins in presence of NADPH by LC-MS/MS analysis. The data set is classed as ADME, Canis lupus familiaris, Microsome. The settings on record: 1 h.
Data set [8] in a line: Stability in rat plasma at 1 uM measured upto 120 mins by LC-MS/MS analysis. The data set is classed as ADME, cell-free. The settings on record: 2 h.
A short description of data set [9]: Stability in mouse plasma at 1 uM measured upto 120 mins by LC-MS/MS analysis. The settings on record: 2 h. Type of data set: ADME, cell-free.
The nature of data set [10]: Stability in dog plasma at 1 uM measured upto 120 mins by LC-MS/MS analysis. The settings on record: 2 h. The data set is classed as ADME, cell-free, Canis lupus familiaris.
The nature of data set [11]: Stability in monkey plasma at 1 uM measured upto 120 mins by LC-MS/MS analysis. The settings on record: rhesus monkey, 2 h. Type of data set: ADME, cell-free, Macaca mulatta.
A short description of data set [12]: Stability in human plasma at 1 uM measured upto 120 mins by LC-MS/MS analysis. Type of data set: ADME, cell-free. The settings on record: 2 h.

In the case of `CC(=O)Nc1ccc(O)cc1` [ACETAMINOPHEN], the results for the fraction unbound at 6 h, 1 µM in [1] and in [2] were 0.741 and 0.526, respectively.

Turning to `Cc1ncc2n1-c1ccc(Cl)cc1C(c1ccccc1F)=NC2` [MIDAZOLAM], the Stability result in data set [3], in [4], in [5], in [6] and in [7] was “Unstable” in each case.

Consider `CC(C)[N+](C)(CCOC(=O)C1c2ccccc2Oc2ccccc21)C(C)C` [PROPANTHELINE], for which the Stability result in data set [8], in data set [9], in data set [10], in data set [11] and in data set [12] was “Unstable” in each case.
